Results: the supplement of paper PMC10307832

What follows are cell lines tested with COc1nc(N)nc2c1ncn2[C@@H]1O[C@H](CO)[C@@H](O)[C@@H]1O [Nelarabine] + CCNC(=O)c1noc(-c2cc(C(C)C)c(O)cc2O)c1-c1ccc(CN2CCOCC2)cc1 [Luminespib] (partner 0.01 µM) (assay: relative viability (nuclei count vs DMSO), 5 days (fraction); higher = more cells survive). Details: first compound 0.01 µM.
How it was run: (§1)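 Lung cancer cell lines were seeded in 1536-well plates and dosed by pin tool the next day, with either a single drug or a fixed anchor-drug dose combined with five library-drug doses (not always all listed) spaced in √10 steps. Five days later, one step fixed the cells and stained their nuclei (final 0.05% Triton X-100, 1% formaldehyde, 1 ug/ml Hoechst), and nuclei were counted on 4× images. Relative viability is the nuclei count in treated wells divided by the count in vehicle wells, and each value is the median of duplicate plates.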

Compared with SK-LU-1, SK-MES-1 is higher in relative viability: 0.225 for the first, 0.954 for the second.

First: SW 1573
Second: UMC-11
The relative viability of the first is lower: 0.168 for the first, 1.24 for the second.

Same assay, conditions: first compound 0.03162 µM

Going from SK-LU-1 to SK-MES-1, the relative viability rises from 0.154 to 0.622.

Compared with SW 1573, UMC-11 is higher in relative viability: 0.174 for the first, 0.961 for the second.

Same assay, conditions: first compound 0.1 µM

Compared with SK-LU-1, SK-MES-1 is higher in relative viability: 0.215 for the first, 0.748 for the second.

First: SW 1573
Second: UMC-11
The relative viability of the first is lower: 0.164 for the first, 1.03 for the second.

Same assay, conditions: first compound 0.3162 µM

Compared with SK-LU-1, SK-MES-1 is higher in relative viability: 0.199 for the first, 0.847 for the second.

Compared with SW 1573, UMC-11 is higher in relative viability: 0.34 for the first, 0.973 for the second.

Same assay, conditions: first compound 1 µM

Going from SK-LU-1 to SK-MES-1, the relative viability rises from 0.223 to 0.797.

Going from SW 1573 to UMC-11, the relative viability rises from 0.229 to 0.893.

These cell lines were tested with C=CCn1c(=O)c2cnc(Nc3ccc(N4CCN(C)CC4)cc3)nc2n1-c1cccc(C(C)(C)O)n1 [Adavosertib] + Cc1nc(NC(=O)N2CCC[C@H]2C(N)=O)sc1-c1ccnc(C(C)(C)C(F)(F)F)c1 [Alpelisib] (partner 2 µM) in the same assay as above. Details: first compound 0.01 µM.
How it was run: as §1

Going from SK-LU-1 to SK-MES-1, the relative viability falls from 1.04 to 0.956.

Going from SW 1573 to UMC-11, the relative viability rises from 0.724 to 1.03.

Same assay, conditions: first compound 0.03162 µM

Going from SK-LU-1 to SK-MES-1, the relative viability falls from 1.01 to 0.844.

Compared with SW 1573, UMC-11 is higher in relative viability: 0.786 for the first, 1.02 for the second.

Same assay, conditions: first compound 0.1 µM

Compared with SK-LU-1, SK-MES-1 is higher in relative viability: 0.656 for the first, 0.924 for the second.

First: SW 1573
Second: UMC-11
The relative viability of the first is lower: 0.751 for the first, 1.18 for the second.

Same assay, conditions: first compound 0.3162 µM

Compared with SK-LU-1, SK-MES-1 is higher in relative viability: 0.291 for the first, 0.618 for the second.

Going from SW 1573 to UMC-11, the relative viability rises from 0.761 to 1.04.

These cell lines were tested with COc1nc(N)nc2c1ncn2[C@@H]1O[C@H](CO)[C@@H](O)[C@@H]1O [Nelarabine] + C[C@]1(O)C[C@@H](c2nc(-c3ccc4ccc(-c5ccccc5)nc4c3)c3c(N)nccn32)C1 [Linsitinib] (partner 1 µM) in the same assay as above. Details: first compound 0.01 µM.
How it was run: as §1

Going from SK-LU-1 to SK-MES-1, the relative viability falls from 1.45 to 1.15.

First: SW 1573
Second: UMC-11
The relative viability of the first is lower: 0.82 for the first, 1.34 for the second.

Same assay, conditions: first compound 0.03162 µM

Going from SK-LU-1 to SK-MES-1, the relative viability rises from 0.835 to 1.09.

First: SW 1573
Second: UMC-11
The relative viability of the first is lower: 0.646 for the first, 0.768 for the second.

Same assay, conditions: first compound 0.1 µM

First: SK-LU-1
Second: SK-MES-1
The relative viability of the first is higher: 1.1 for the first, 1.03 for the second.

Compared with SW 1573, UMC-11 is higher in relative viability: 0.848 for the first, 0.949 for the second.

Same assay, conditions: first compound 0.3162 µM

Compared with SK-LU-1, SK-MES-1 is lower in relative viability: 1.11 for the first, 1.1 for the second.

First: SW 1573
Second: UMC-11
The relative viability of the first is lower: 0.799 for the first, 0.987 for the second.

Same assay, conditions: first compound 1 µM

Compared with SK-LU-1, SK-MES-1 is lower in relative viability: 1.35 for the first, 1.08 for the second.

Compared with SW 1573, UMC-11 is higher in relative viability: 0.73 for the first, 0.896 for the second.

What follows are cell lines tested with COc1nc(N)nc2c1ncn2[C@@H]1O[C@H](CO)[C@@H](O)[C@@H]1O [Nelarabine] + CC(=O)Nc1cccc(-n2c(=O)n(C3CC3)c(=O)c3c(Nc4ccc(I)cc4F)n(C)c(=O)c(C)c32)c1 [Trametinib] (partner 0.02 µM) in the same assay as above. Details: first compound 0.01 µM.
How it was run: as §1

Going from SK-LU-1 to SK-MES-1, the relative viability rises from 0.523 to 0.56.

Going from SW 1573 to UMC-11, the relative viability rises from 0.667 to 0.855.

Same assay, conditions: first compound 0.03162 µM

Compared with SK-LU-1, SK-MES-1 is higher in relative viability: 0.42 for the first, 0.567 for the second.

Compared with SW 1573, UMC-11 is higher in relative viability: 0.599 for the first, 0.659 for the second.

Same assay, conditions: first compound 0.1 µM

Going from SK-LU-1 to SK-MES-1, the relative viability rises from 0.421 to 0.57.

First: SW 1573
Second: UMC-11
The relative viability of the first is lower: 0.566 for the first, 0.755 for the second.

Same assay, conditions: first compound 0.3162 µM

Compared with SK-LU-1, SK-MES-1 is lower in relative viability: 0.558 for the first, 0.555 for the second.

Going from SW 1573 to UMC-11, the relative viability rises from 0.631 to 0.767.

Same assay, conditions: first compound 1 µM

Going from SK-LU-1 to SK-MES-1, the relative viability rises from 0.514 to 0.615.

First: SW 1573
Second: UMC-11
The relative viability of the first is lower: 0.512 for the first, 0.843 for the second.
